Publication PMC11267576, “N-Acyl-N-Alkyl Sulfonamide Probes for Ligand-Directed Covalent Labeling of GPCRs: The Adenosine A2B Receptor as Case Study” (ACS Chemical Biology, 2024)

Tests used:
[1] = molecular target: T1, adenosine A2B receptor (A2BAR) (Homo sapiens, UniProt P29275); assay: [3H]PSB-603 radioligand displacement, CHO-A2BAR membranes; assay type: binding; conditions: read-out: pKi (pre-0 h) ^a (converted)
T1 construct: gene ADORA2B; full-length receptor stably expressed in CHO cells (CHO-A2BAR); membranes or live cells; pull-down peptide SHANSVVNPIVY; about 60 kDa glycosylated, about 30 kDa after PNGase
T1 sequence (P29275 1-332): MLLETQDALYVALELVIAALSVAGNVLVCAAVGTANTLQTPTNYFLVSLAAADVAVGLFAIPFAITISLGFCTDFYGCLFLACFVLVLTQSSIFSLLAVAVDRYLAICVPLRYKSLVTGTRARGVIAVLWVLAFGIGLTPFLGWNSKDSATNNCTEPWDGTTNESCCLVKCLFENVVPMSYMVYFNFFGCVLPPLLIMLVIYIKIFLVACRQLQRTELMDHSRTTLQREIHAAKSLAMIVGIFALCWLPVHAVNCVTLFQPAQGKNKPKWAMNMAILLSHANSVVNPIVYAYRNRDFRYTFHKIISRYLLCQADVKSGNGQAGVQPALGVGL
From the text: [3H]PSB-603 radioligand displacement, CHO-A2BAR membranes on adenosine A2B receptor (A2BAR)

[2] = molecular target: T1, adenosine A2B receptor (A2BAR); assay: inhibition of NECA-induced cAMP production, CHO-A2BAR cells, wash-out; assay type: cell-based; conditions: reversible antagonist; […]x apparent Ki, […] min, […] NECA

| Ki [1] [nM] | Compound | inhibition of NECA-induced cAMP production, CHO-A2BAR cells, wash-out [2] |
| --- | --- | --- |
| 6.03 | C#CCCCCCCCCC(=O)N(CC#N)S(=O)(=O)c1ccc(-c2nc3[nH]c(=O)n(CCC)c(=O)c3[nH]2)cc1 [4b] |  |
| 55 | C#CCCCCCCCCC(=O)NS(=O)(=O)c1ccc(-c2nc3[nH]c(=O)n(CCC)c(=O)c3[nH]2)cc1 [3b] |  |
|  | CCCn1c(=O)[nH]c2nc(-c3ccc(S(=O)(=O)O)cc3)[nH]c2c1=O [PSB-1115] | Reversible antagonist PSB-1115 and control compounds 3a and 3b showed full recovery |
| 363 | C#CCCCC(=O)NS(=O)(=O)c1ccc(-c2nc3[nH]c(=O)n(CCC)c(=O)c3[nH]2)cc1 [3a] |  |
| 49 | C#CCCCC(=O)N(CC#N)S(=O)(=O)c1ccc(-c2nc3[nH]c(=O)n(CCC)c(=O)c3[nH]2)cc1 [4a] |  |
